What was measured:
Type in all cases: in vivo
Botrytis cinerea (Bc) = assay: Antifungal activity of AITC vapor and coating agent against Botrytis cinerea (Bc) in strawberries; conditions: 30 minutes
Experimental: Example 13. The antifungal activity of AITC vapor against Bc in strawberries was tested. All samples were wounded by making a 3 mm deep puncture in the skin. Samples were infected by dispensing 1000 Bc spores suspended in 10 μL of water in the wound. Samples were then incubated at ambient temperature, imaged, and assessed for mold over the following 3 days. The test group consisted of strawberries that were: uninfected and untreated; infected and untreated; and exposed for 30 minutes to the vapor of 125 uL AITC dispensed on Whatman filter paper. […] The infection rates in the initially uninfected sample indicate that the step involving the initial infection of the wound by dispensing the Bc spores may not be necessary to promote infection in the test groups.
Example 14. The antifungal activity of a range of AITC vapor concentrations against Bc in strawberries was tested. Samples were treated by exposure for 30 minutes to the vapor of a range of volumes of AITC disposed on a filter paper disc, then incubated at ambient temperature, imaged, and assessed for mold over the following 6 days. Test groups consisted of strawberries that were untreated and strawberries exposed to the vapor of 62.5 μL, 125 μL, 250 μL, and 500 μL of AITC. […] On day 6, 83% of the untreated control strawberries were infected, 100% of the 62.5 μL AITC dose strawberries were infected, 13% of the 125 μL AITC dose strawberries were infected, and 0% of the 250 and 500 μL AITC dose strawberries were infected. For strawberries incubated at room temperature, all of the AITC doses above 62.5 μL were effective at preventing mold, with doses above 125 μL substantially eliminating mold.
Example 15. The antifungal activity of AITC vapor under different exposure conditions against Bc in strawberries was tested. Test groups consisted of strawberries that were untreated and treated by exposure for 30 minutes to the vapor of 125 μL of AITC disposed on a filter paper disc. Test groups were then incubated in either open or closed containers at 4° C., imaged, and assessed for mold over the following 14 days. […] All samples were free of mold through 7 days. On day 12, 16.7% of the open air controls were infected, 29.2% of closed container controls were infected, and 0% of the AITC treated were infected. On day 14, 33.3% of the open air controls were infected, 41.7% of closed container controls were infected, 0% of the open air AITC treated were infected, and 4.2% of the closed container AITC treated were infected. For strawberries incubated at 4° C., AITC treatment was effective in reducing the incidence of mold over a two week period. While ⅓ of the open air untreated samples were infected, none of the open air AITC-treated were infected. Over 40% of the closed container controls were infected. A single strawberry was infected in the closed container AITC-treated test group.
Example 16. The antifungal activity of AITC vapor against Bc in strawberries treated with a coating agent (95 wt % glyceryl monostearate and 5 wt % sodium stearate) and exposed to vapor in clamshells was tested. Test groups consisted of strawberries that were: untreated; dipped in 40 g/L solution of the coating agent; exposed for 30 minutes to the vapor of 125 μL of AITC disposed on a filter paper disc; and dipped in 40 g/L solution of the coating agent and exposed for 30 minutes to the vapor of 125 μL of AITC disposed on a filter paper disc. Samples were treated, incubated at ambient temperature, imaged, and assessed for mold over the following 4 days. […] On day 3, 52.8% of the controls were infected, 42.1% of the coating agent were infected, 26.3% of the AITC were infected, and 9.3% of the coating agent+AITC were infected. On day 4, 88.9% of the controls were infected, 76.3% of the coating agent were infected, 71% of the AITC were infected, and 34.9% of the coating agent+AITC were infected. […] Bowl dipping in the coating solution also presented challenges for drying around the calyx.
Example 17. […]

mold = assay: AITC vapor against mold growth on produce in an airtight bin (general description)
Experimental: The plurality of produce items is contacted with the antimicrobial agent for a length of time in a range of 1 minute to 100 hours (e.g., 10 minutes to 1 hour). The length of time is dependent on a variety of factors, such as type of produce, target pathogen, and the degree to which the enclosure is sealed. Examples include exposure times between 15 minutes and 96 hours for allyl isothiocyanate (AITC) in an airtight bin. […] Lower antimicrobial agent concentrations with longer exposure times or higher antimicrobial concentrations with shorter exposure times can also be used. For example, the plurality of produce items is contacted with the antimicrobial agent for a length of time in a range of 15 minute to 72 hours.
A concentration of the antimicrobial agent in the headspace of the enclosure is typically in a range of about 20 parts per million by volume (ppmv) to about 5000 ppmv (e.g., about 550 ppmv to about 4800 ppmv, or about 25 ppmv to about 1250 ppmv). Depending on type of produce and exposure time in the enclosure, antimicrobial agent concentrations greater than about 2200 ppmv can sometimes damage the produce. […] In some embodiments, the antimicrobial agent is provided in a concentration to the enclosure in a headspace at least about 1200 ppmv, at least about 1250 ppmv, or about 1250 ppmv to about 5000 ppmv, or about 1250 ppmv to about 4900 ppmv.

[1] = test system: non-Pd latent fungal infection; assay: AITC vapor against non-Pd latent fungal infection in mandarins; conditions: Example 5; 125 μL (730 ppm), 1 hour exposure
Experimental: Example 5. The antifungal activity of a range of AITC vapor exposure times was tested to determine the effects against Pd in mandarins. All samples were wounded by puncturing with a screw. Mandarins were infected by dispensing 1000 Pd spores suspended in 10 μL of water in the wound. The fruit was then placed in an airtight container, 125 μL of AITC was dispensed onto a Whatman filter paper disc, the disc suspended in front of a battery-powered fan, and the container closed for 15 minutes to 2 hours. The test groups were then left at ambient temperature, high humidity, and assessed for Pd mold after 6 days. The test groups consisted of mandarins that were: uninfected and untreated; infected and untreated; infected and treated with 0.5 g/L imazalil; infected, treated with 125 μL of AITC on the filter paper, and exposed to the vapor for 15 minutes, 30 minutes, 1 hour, and 2 hours. […] A non-Pd latent fungal infection confounded results for the imazalil control and the 1 hour AITC treatment. […] A 30 minute exposure to an AITC vapor concentration of 730 ppm appeared to either substantially prevent mold infection or reduce the severity of infection. Longer exposure time increased the antifungal efficacy. […] Longer exposure times were effective at largely eliminating these pathogens.

## C=CCN=C=S [AITC, allyl isothiocyanate]
Botrytis cinerea (Bc); Example 13, 125 uL, after 24 hours
  visible mold on strawberries: no mold was visible
Botrytis cinerea (Bc); Example 13, 125 uL, after 48 hours
  fraction of samples showing visible mold: ⅛
Botrytis cinerea (Bc); Example 13, 125 uL, after 72 hours
  fraction of samples showing visible mold: ¼
Botrytis cinerea (Bc); Example 14, 62.5 μL dose, day 6, ambient temperature
  strawberries infected: 100%
Botrytis cinerea (Bc); Example 14, 125 μL dose, day 6, ambient temperature
  strawberries infected: 13%
Botrytis cinerea (Bc); Example 14, 250 and 500 μL dose, day 6, ambient temperature
  strawberries infected: 0%
Botrytis cinerea (Bc); Example 15, 125 μL, 4° C., closed container, day 14
  strawberries infected: 4.2%
Botrytis cinerea (Bc); Example 15, 125 μL, 4° C., open air, day 14
  strawberries infected: 0%
Botrytis cinerea (Bc); Example 15, 125 μL, incubated at 4° C., day 12
  strawberries infected: 0%
Botrytis cinerea (Bc); Example 16, clamshells, coating agent 40 g/L dip, AITC 125 μL, day 3
  strawberries infected: 26.3%
Botrytis cinerea (Bc); Example 16, clamshells, coating agent 40 g/L dip, AITC 125 μL, day 4
  strawberries infected: 71%
mold; AITC concentration of 1000 ppm, exposure time of 15 minutes, airtight bin
  mold growth on the produce: slowed mold growth on the produce
mold; AITC concentration of 1000 ppm, exposure time of 30 min or longer
  efficacy against mold on the produce: good efficacy
mold; AITC concentrations in a range of 550 ppmv to 4800 ppmv
  effect on mold growth: some inhibitory effect on mold growth
mold; AITC concentrations over 1000 ppmv
  effect on mold growth: tended to be completely inhibitory
[1]
  response of latent pathogens to AITC vapor: substantially resistant to AITC vapor

Reference: patent US20230292776A1, “GAS PHASE TREATMENT OF PRODUCE” (priority 2022, published 2023)
